Starred links: 1 amine or outer side, 2 acyl side, 3 side chain; linkers in the order of their positions; H or OH if unused. Positions of bridges follow the written chain, without caps; N, C: chain ends. Non-standard residues stand in square brackets, D forms with d. Residues, ends and D or L forms follow the SMILES beside them. 2Thi = N[C@@H](Cc1cccs1)C(=O)O; αMeL = CC(C)C[C@](C)(N)C(=O)O; Chg = N[C@H](C(=O)O)C1CCCCC1; Phg = N[C@H](C(=O)O)c1ccccc1; Suc = O=C(CCC(=O)[*:2])[*:1]; Nle = CCCC[C@H](N)C(=O)O; NcPrGly = O=C(O)CNC1CC1; Nva = CCC[C@H](N)C(=O)O; Dap = NC[C@H](N)C(=O)O; Sar = CNCC(=O)O
Legend:
Format in all cases: cell-based
human V2 receptor = target: T1, human V2 receptor (Homo sapiens, UniProt P30518); assay: Calcium flux assay (FLIPR), agonist mode, CHO cells expressing human V2 receptor + Gqs5; conditions: for EC50: CHO cells, human V2 + chimeric Gqs5, calcium flux FLIPR, read-out: hV2 EC50; for hV2 efficacy (%): maximum response normalized to endogenous full agonist = 100%
T1 construct: expressed in transfected cells
T1 sequence (P30518 whole entry): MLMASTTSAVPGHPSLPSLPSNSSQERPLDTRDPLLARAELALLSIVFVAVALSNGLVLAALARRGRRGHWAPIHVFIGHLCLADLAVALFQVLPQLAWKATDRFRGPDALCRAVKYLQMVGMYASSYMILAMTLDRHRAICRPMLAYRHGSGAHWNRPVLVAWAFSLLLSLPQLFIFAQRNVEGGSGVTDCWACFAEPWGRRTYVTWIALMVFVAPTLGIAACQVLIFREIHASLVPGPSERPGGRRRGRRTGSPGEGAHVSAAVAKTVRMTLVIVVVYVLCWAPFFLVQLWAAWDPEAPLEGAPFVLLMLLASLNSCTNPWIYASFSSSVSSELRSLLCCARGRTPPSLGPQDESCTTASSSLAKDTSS
Source text: (§1) Chines Hamster Ovary (CHO) cells were transfected with expression plasmids encoding either the human V1a, the human Oxytocin (OTR) or the human V2 receptor, the later in combination with the chimeric Gqs5 G protein to redirect the signal to Calcium flux. Stable cells were cloned by limiting dilution to yield monoclonal cell lines expressing either human V1a, human V2+Gqs5 or human OTR receptors and selected based on functional responses detected on a fluorometric imaging plate reader (FLIPR) detecting Calcium flux in the cell after receptor activation. The stable cell lines were grown in F-12 K Nutrient Mixture (Kaighns Modification), containing 10% foetal bovine serum (FBS), 1% penicillin-streptomycin, 1% L-[…], 200 ug/ml Geneticin at 37° C. in a 10% CO2 incubator at 95% humidity.
(§2) On the afternoon before the assay, cells were plated at a density of 50,000 cells/well into black 96 well plates with clear bottoms to allow cell inspection and fluorescence measurements from the bottom of each well. The density of cells was sufficient to yield a confluent monolayer the next day. Hanks balanced salt solution, without phenol red, containing 20 mM HEPES (pH 7.3) and 2.5 mM probenecid (assay buffer) was prepared fresh for each experiment. Compound dilutions were made using a Beckman Biomek 2000 laboratory automation workstation, in assay buffer containing 1% DMSO. The dye-loading buffer consisted of a final concentration of 2 μM Fluo-4-AM (dissolved in DMSO and pluronic acid) in assay buffer. The existing culture media was removed from the wells and 100 μl of the dye-loading buffer was added to each well and incubated for approximately 60 min at 37° C. in a 5% CO2 incubator at 95% humidity. Once dye-loaded, the cells were washed thoroughly on an Embla cell washer with the assay buffer to remove any unincorporated dye. Exactly 100 μl assay buffer was left in each well.
(§3) Each 96 well plate containing dye-loaded cells was placed into the FLIPR machine and the laser intensity set to a suitable level to detect low basal fluorescence. To test compounds as agonists, 25 μl diluted compound was added to the plate 10 seconds into the fluorescent measurements and fluorescent response was recorded for 5 minutes. The fluorescence data was normalized to the endogenous full agonist dose-response set at 100% for the maximum response and 0% for the minimum. Each agonist concentration-response curve was constructed using a four parameter logistic equation with Microsoft Excel XLFit as follows: Y=Minimum+((Maximum−Minimum)/(1+10^(LogEC50-X)nH)), where y is the % normalized fluorescence, minimum is the minimum y, maximum is the maximum y, logEC50 is the log10 concentration which produces 50% of the maximum induced fluorescence, x is the log10 of the concentration of the agonist compound and H is the slope of the curve (the Hill Coefficient). The maximum value gives the efficacy of the agonist test compound in percentage. The concentration of agonist that produced a half-maximal response is represented by the EC50 value, the logarithm of which yielded the pEC50 value.

human V1a receptor = target: T2, human V1a receptor (Homo sapiens, UniProt P37288); assay: Calcium flux assay (FLIPR), agonist mode, CHO cells expressing human V1a receptor; conditions: read-out: hV1a EC50
T2 construct: expressed in transfected cells
T2 sequence (P37288 whole entry): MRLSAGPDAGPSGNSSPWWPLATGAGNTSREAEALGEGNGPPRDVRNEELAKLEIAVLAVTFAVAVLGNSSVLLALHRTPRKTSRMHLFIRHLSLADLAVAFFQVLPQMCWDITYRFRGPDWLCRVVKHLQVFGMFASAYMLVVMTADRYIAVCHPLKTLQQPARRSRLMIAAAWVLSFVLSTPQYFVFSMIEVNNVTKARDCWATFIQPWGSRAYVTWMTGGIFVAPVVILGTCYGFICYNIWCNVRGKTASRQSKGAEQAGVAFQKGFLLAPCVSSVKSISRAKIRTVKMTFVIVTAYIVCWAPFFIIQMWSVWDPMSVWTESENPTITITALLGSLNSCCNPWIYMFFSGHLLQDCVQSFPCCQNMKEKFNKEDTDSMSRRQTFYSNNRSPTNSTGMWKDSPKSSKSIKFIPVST
Source text: as §1, §2, §3

[1] = target: T3, human Oxytocin (OTR) receptor (Homo sapiens, UniProt P30559); assay: Calcium flux assay (FLIPR), agonist mode, CHO cells expressing human oxytocin receptor; conditions: for EC50: CHO cells, human OTR, calcium flux FLIPR, read-out: hOT EC50; for hOT efficacy (%) / Emax: maximum response normalized to endogenous full agonist = 100%; for Emax: CHO, read-out: hOT efficacy (%)
T3 construct: expressed in transfected cells
T3 sequence (P30559 1-389): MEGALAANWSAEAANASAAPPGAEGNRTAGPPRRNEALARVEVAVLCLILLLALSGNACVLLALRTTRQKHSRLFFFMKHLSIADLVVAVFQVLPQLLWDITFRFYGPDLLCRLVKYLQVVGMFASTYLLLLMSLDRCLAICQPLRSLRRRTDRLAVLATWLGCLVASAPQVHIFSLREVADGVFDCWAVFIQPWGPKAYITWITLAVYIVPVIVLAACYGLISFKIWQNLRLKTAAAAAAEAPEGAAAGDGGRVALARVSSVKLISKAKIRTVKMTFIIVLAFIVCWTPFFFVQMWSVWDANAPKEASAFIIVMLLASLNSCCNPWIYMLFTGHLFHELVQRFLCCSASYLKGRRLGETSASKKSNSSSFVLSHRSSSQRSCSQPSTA
Source text: as §1, §2, §3

Row | SMILES | EC50 (human V2 receptor) [nM] | hV2 efficacy (%) (human V2 receptor) | EC50 (human V1a receptor) [nM] | EC50 [1] [nM] | hOT efficacy (%) [1] [%] | Emax [1] [%]
1 | CC[C@H](C)[C@@H]1NC(=O)[C@H](Cc2ccc(O)cc2)NC(=O)CCC(=O)NC[C@@H](C(=O)N2CCC[C@H]2C(=O)N[C@@H](CC(C)C)C(=O)NCC(N)=O)NC(=O)[C@H](CC(N)=O)NC(=O)[C@H](CCC(N)=O)NC1=O [Example 1] (YIQN[Dap]PLG-NH2; linker N-5 via Suc (inferred); C-terminus assumed) | 216 | 130% | 5120 | 1 | 105 | –
2 | CCCC[C@H](NC(=O)CN(C)C(=O)[C@@H]1CNC(=O)CCC(=O)N[C@@H](Cc2ccc(O)cc2)C(=O)N[C@@H]([C@@H](C)CC)C(=O)N[C@@H](CCC(N)=O)C(=O)N[C@@H](CC(N)=O)C(=O)N1)C(=O)NCC(N)=O [Example 6] (YIQN[Dap][Sar][Nle]G-NH2; linker N-5 via Suc) | 364 | 104% | > 27000 | 1 | 119 | –
3 | CCC[C@H](NC(=O)[C@@H]1CCCN1C(=O)[C@@H]1CNC(=O)CCC(=O)N[C@@H](Cc2ccc(O)cc2)C(=O)N[C@@H]([C@@H](C)CC)C(=O)N[C@@H](CCC(N)=O)C(=O)N[C@@H](CC(N)=O)C(=O)N1)C(=O)NCC(N)=O [Example 17] (YIQN[Dap]P[Nva]G-NH2; linker N-5 via Suc) | 116 | 116/116% | 351 | 0.6 | – | 114
4 | CC[C@H](C)[C@@H]1NC(=O)[C@H](Cc2ccc(O)cc2)NC(=O)CCC(=O)NC[C@@H](C(=O)N(CC(=O)N[C@@H](CC(C)C)C(=O)NCC(N)=O)C2CC2)NC(=O)[C@H](CC(N)=O)NC(=O)[C@H](CCC(N)=O)NC1=O [Example 38] (YIQN[Dap][NcPrGly]LG-NH2; linker N-5 via Suc) | 626 | 146% | > 27000 | 0.38 | – | 126
5 | CC[C@H](C)[C@@H]1NC(=O)[C@H](Cc2ccc(O)cc2)NC(=O)CCC(=O)NC[C@@H](C(=O)N(C)CC(=O)N[C@H](C(=O)NCC(N)=O)c2ccccc2)NC(=O)[C@H](CC(N)=O)NC(=O)[C@H](CCC(N)=O)NC1=O [Example 37] (YIQN[Dap][Sar][Phg]G-NH2; linker N-5 via Suc) | 53 | 121% | > 27000 | 0.2 | – | 112
6 | CC[C@H](C)[C@@H]1NC(=O)[C@H](Cc2ccc(O)cc2)NC(=O)CCC(=O)NC[C@@H](C(=O)N2CCC[C@H]2C(=O)N[C@H](C(=O)NCC(N)=O)C2CCCCC2)NC(=O)[C@H](CC(N)=O)NC(=O)[C@H](CCC(N)=O)NC1=O [Example 20] (YIQN[Dap]P[Chg]G-NH2; linker N-5 via Suc) | 174 | 112% | 562 | 0.9 | – | 117
7 | CC[C@H](C)[C@@H]1NC(=O)[C@H](Cc2ccc(O)cc2)NC(=O)CCC(=O)NC[C@@H](C(=O)N(C)CC(=O)N[C@H](C(=O)NCC(N)=O)C2CCCCC2)NC(=O)[C@H](CC(N)=O)NC(=O)[C@H](CCC(N)=O)NC1=O [Example 24] (YIQN[Dap][Sar][Chg]G-NH2; linker N-5 via Suc) | 152 | 120% | > 27000 | 0.5 | – | 104
8 | CC[C@H](C)[C@@H]1NC(=O)[C@H](Cc2ccc(O)cc2)NC(=O)CCC(=O)NC[C@@H](C(=O)N(CC(=O)N[C@H](C(=O)NCC(N)=O)[C@@H](C)O)C2CC2)NC(=O)[C@H](CC(N)=O)NC(=O)[C@H](CCC(N)=O)NC1=O [Example 44] (YIQN[Dap][NcPrGly]TG-NH2; linker N-5 via Suc) | – | – | – | 0.9 | – | 115
9 | CC[C@H](C)[C@@H]1NC(=O)[C@H](Cc2ccc(O)cc2)NC(=O)CCC(=O)NC[C@@H](C(=O)N(C)CC(=O)N[C@@](C)(CC(C)C)C(=O)NCC(N)=O)NC(=O)[C@H](CC(N)=O)NC(=O)[C@H](CCC(N)=O)NC1=O [Example 23] (YIQN[Dap][Sar][αMeL]G-NH2; linker N-5 via Suc) | – | – | – | 3 | 123 | –
10 | CC[C@H](C)[C@@H]1NC(=O)[C@H](Cc2ccc(O)cc2)NC(=O)CCC(=O)NC[C@@H](C(=O)N2CCC[C@H]2C(=O)N[C@@H](Cc2c[nH]c3ccccc23)C(=O)NCC(N)=O)NC(=O)[C@H](CC(N)=O)NC(=O)[C@H](CCC(N)=O)NC1=O [Example 16] (YIQN[Dap]PWG-NH2; linker N-5 via Suc) | – | – | – | 4 | 100 | –
11 | CC[C@H](C)[C@@H]1NC(=O)[C@H](Cc2ccc(O)cc2)NC(=O)CCC(=O)NC[C@@H](C(=O)N2CCC[C@H]2C(=O)N[C@@H](CO)C(=O)NCC(N)=O)NC(=O)[C@H](CC(N)=O)NC(=O)[C@H](CCC(N)=O)NC1=O [Example 11] (YIQN[Dap]PSG-NH2; linker N-5 via Suc) | – | – | – | 3 | 128 | –
12 | CC[C@H](C)[C@@H]1NC(=O)[C@H](Cc2ccc(O)cc2)NC(=O)[C@@H](N)CC(=O)NC[C@@H](C(=O)N(C)CC(=O)N[C@@H](CC(C)C)C(=O)NCC(N)=O)NC(=O)[C@H](CC(N)=O)NC(=O)[C@H](CCC(N)=O)NC1=O [Example 2] (H-DYIQN[Dap][Sar]LG-NH2; lactam 1-6) | – | – | > 27000 | 4 | 144 | –
13 | CC[C@H](C)[C@@H]1NC(=O)[C@H](Cc2ccc(O)cc2)NC(=O)CCC(=O)NC[C@@H](C(=O)N2CCC[C@H]2C(=O)N[C@H](C(=O)NCC(N)=O)[C@@H](C)O)NC(=O)[C@H](CC(N)=O)NC(=O)[C@H](CCC(N)=O)NC1=O [Example 10] (YIQN[Dap]PTG-NH2; linker N-5 via Suc) | – | – | – | 1 | 130 | –
14 | CC[C@H](C)[C@@H]1NC(=O)[C@H](Cc2ccc(O)cc2)NC(=O)CCC(=O)NC[C@@H](C(=O)N2CCC[C@H]2C(=O)N[C@@H](Cc2cnc[nH]2)C(=O)NCC(N)=O)NC(=O)[C@H](CC(N)=O)NC(=O)[C@H](CCC(N)=O)NC1=O [Example 15] (YIQN[Dap]PHG-NH2; linker N-5 via Suc) | – | – | – | 8 | 123 | –
15 | CC[C@H](C)[C@@H]1NC(=O)[C@H](Cc2ccc(O)cc2)NC(=O)CCC(=O)NC[C@@H](C(=O)N(CC(=O)N[C@H](C(=O)NCC(N)=O)C2CCCCC2)C2CC2)NC(=O)[C@H](CC(N)=O)NC(=O)[C@H](CCC(N)=O)NC1=O [Example 43] (YIQN[Dap][NcPrGly][Chg]G-NH2; linker N-5 via Suc) | – | – | – | 0.26 | – | 110
16 | CC[C@H](C)[C@@H]1NC(=O)[C@H](Cc2ccc(O)cc2)NC(=O)CCC(=O)NC[C@@H](C(=O)N2CCC[C@H]2C(=O)N[C@@H](Cc2cccs2)C(=O)NCC(N)=O)NC(=O)[C@H](CC(N)=O)NC(=O)[C@H](CCC(N)=O)NC1=O [Example 21] (YIQN[Dap]P[2Thi]G-NH2; linker N-5 via Suc) | – | – | – | 4 | 126 | –
17 | CC[C@H](C)[C@@H]1NC(=O)[C@H](Cc2ccc(O)cc2)NC(=O)CCC(=O)NC[C@@H](C(=O)N(C)CC(=O)N[C@@H](CO)C(=O)NCC(N)=O)NC(=O)[C@H](CC(N)=O)NC(=O)[C@H](CCC(N)=O)NC1=O [Example 30] (YIQN[Dap][Sar]SG-NH2; linker N-5 via Suc) | – | – | – | 2 | 109 | –
